Measurements taken from a melting point compilation (Tetko et al.).

SMILES | melting point [°C]
O=S1(=O)CCCN1c1ccc(Br)cc1 | 108 to 110
COc1cccc(COCC(N)=NO)c1 | 59 to 61
N#CCCCS(N)(=O)=O | 49 to 51
NS(=O)(=O)CC1CC1 | 45 to 47
Cc1nc(-c2ccncc2)nc(Cl)c1C | 112 to 114
N#Cc1[nH]c(=O)n(Cc2ccccc2)c1NCc1ccccc1 | 140 to 142
Nc1ccn(-c2ncccc2F)n1 | 89 to 91
O=C(O)CCS(=O)(=O)Nc1ccccc1 | 127 to 129
Sc1nc2ccccc2n1-c1ccccc1 | 140 to 145
CC(=O)c1nnn(-c2ccccc2)c1C | 99 to 101
Cc1nn(-c2ccccc2Cl)c2sc(C(=O)O)cc12 | 56 to 58
NS(=O)(=O)c1cccc(C(=O)O)c1 | 238 to 240
Nc1ccc(Oc2ccncc2)cc1 | 160 to 162
O=C(O)C=Cc1cccc2cccnc12 | 188 to 190
O=C(O)CC1CCOc2ccccc21 (centres undefined) | 89 to 91
CCS(=O)(=O)N1CCCC(C(=O)O)C1 (centres undefined) | 59 to 61
CC(C)(C)c1ncc(C(=O)O)s1 | 204 to 206
CS(=O)(=O)c1cccc(C(=O)Cl)c1 | 85 to 87
CCOC(=O)N1CCC(NC(N)=O)CC1 | 203 to 205
Cc1ccc2c(CCl)cc(=O)oc2c1C | 174 to 176
CC(C)NC(=O)Nc1ccc(C#N)cc1 | 193 to 195
CCc1c(C(=O)Nc2cc(S(=O)(=O)N(CC)CC)ccc2O)[nH]c(C)c1C(C)=O | 229 to 231
O=C1CCNc2ncccc2N1 | 263 to 265
Cc1ccc2ncnc(Cl)c2c1 | 105 to 107
O=C(O)Cc1coc(-c2cccs2)n1 | 185 to 187

SMILES | melting point [°C]
CCOC(=O)c1ccc(S(=O)(=O)Cl)c(Br)c1 | 48 to 50
O=S(=O)(Cl)CCS(=O)(=O)c1ccc(F)cc1 | 145 to 147
Cc1nn(C)c(C)c1NC(=O)CCl | 107 to 109
Nc1ccc(-c2ncno2)cc1 | 99 to 101
COc1cc2ncc(C(=O)O)c(O)c2cc1OC | 293 to 295
CCC(NC(=O)OC(C)(C)C)C(=O)O (centres undefined) | 88 to 90
CC(=O)C(Cc1ccccc1)NC(=O)CCl (centres undefined) | 73 to 75
COc1ccccc1CNC(=O)n1ccnc1 | 128 to 130
CC(C)NS(=O)(=O)c1ccc(Cl)c(C(=O)O)c1Cl | 218 to 220
CN(C)c1ccc2cc(N)ccc2n1 | 84 to 86
CCOc1cc(-c2ccccc2)sc1C(=O)O | 174 to 176
O=S(=O)(c1ccc(Cl)c(C(F)(F)F)c1)N1CCNCC1 | 292 to 295
N#Cc1ccsc1NC(=O)CCl | 160 to 170
COC(=O)C(=O)CC(=O)c1cc(F)ccc1F | 145 to 147
CS(=O)(=O)Nc1nnc(N)s1 | 251 to 253
Cc1cc(C)c(CCNC(=O)CCl)c(C)c1 | 143 to 145
O=C(O)C=Cc1cc(Cl)cc(Cl)c1 | 130 to 134
Cc1cc(NC(=O)C(C)Cl)no1 (centres undefined) | 132 to 134
O=S(=O)(Cl)c1cc2c(cc1Br)OCCO2 | 173 to 175
Cc1ccc(C)n1-c1ccc(C(=O)O)cc1 | 213 to 215
Nc1ccc(-c2nc3cc(Br)ccc3[nH]2)cc1 | 219 to 221
O=S1(=O)CCC(Cc2nnc(S)o2)C1 (centres undefined) | 160 to 162
O=c1[nH]cc(Br)c2sccc12 | 229 to 231
Cn1c(C=O)nc2cc(C(F)(F)F)ccc21 | 111 to 113
Nc1ccc(NC(=O)NC2CC2)cc1 | 161 to 163

SMILES | melting point [°C]
CS(=O)(=O)Nc1ccc(N)cc1Br | 146 to 148
COc1ccc(CCN)c(O)c1 | 98 to 100
Cn1cc(Br)cc1C(=O)NC1CC1 | 112 to 114
O=S(=O)(Nc1ccc(O)cc1)c1ccccc1 | 156 to 158
O=C(O)C1CC(=O)N(c2cccc3ccccc23)C1 (centres undefined) | 207 to 209
Cc1ccccc1-n1nc(C(=O)O)c2c1CCC2 | 205 to 207
Cc1cc(C(=O)CCl)c(Cl)cc1F | 36 to 38
O=S(=O)(Cl)Cc1ccc(Cl)nc1 | 59 to 61
CC(=O)NC(Cc1c[nH]c2cc(F)ccc12)C(=O)O (centres undefined) | 181 to 183
Nc1ccc2ccoc2c1 | 51 to 53
CSc1ccc(C(C)=O)cc1F | 71 to 73
Nc1cc(F)ccc1S(N)(=O)=O | 129 to 131
CC(=O)NC(C(=O)O)C1CCCC1 (centres undefined) | 172 to 174
N#CCn1cc(C(=O)O)c2ccccc21 | 199 to 201
Cn1nnnc1-c1cccc(N)c1 | 147 to 149
NS(=O)(=O)C1CCCNC1 (centres undefined) | 119 to 121
CCOC(=O)c1sc2nc(CN3CCCCC3)nc(Cl)c2c1C | 105 to 107
O=S(=O)(Cl)C=Cc1ccc(F)cc1 | 110 to 112
OCc1ccc2[nH]nnc2c1 | 146 to 148
Cc1cn(-c2ncccc2F)nc1N | 131 to 133
COCCOc1ccc(Cl)cc1C#N | 64 to 66
O=c1c2sc(-c3ccccc3)cc2nc(S)n1Cc1ccccc1 | 313 to 315
Cc1cc(C)c(C)c(Oc2c(C#N)c(C)nn2C)c1 | 69 to 71
CCCOc1ccc(C(=O)NN)cc1OC | 146 to 148
